Test results as given in patent publication US11633394B2, “Substituted alkynylene compounds as anticancer agents” (Aurigene Oncology Limited, priority 2018, dated 2023).

Experiments:
Assay type in all cases: cell-based
NCI-H1792 cells = assay: Anti proliferative activity in NCI-H1792 cells by XTT assay; conditions: H1792 cell line; for IC50: 72 hours incubation
Description: Example 78: Determination of Anti Proliferative Activity in NCI-H1792 Cells by XTT Assay
NCI-H1792 cells (ATCC CRL-5895) were plated at 2000 cells/well in 96 well flat clear bottom plates (Corning, Cat. No 3596) using complete RPMI media. After 24 hours, compounds of present invention were added to cells from 20 mM stocks made in DMSO (Sigma Cat no. D2650). Each concentration of compound was tested in triplicate with DMSO concentration not exceeding a final percentage of 0.3 in the cells. After 72 hours of incubation in CO2 incubator, XTT (Invitrogen, Cat. no X6493) was added to the wells. XTT was dissolved in serum free media at 1 mg/ml and absorbance readings were taken in spectrophotometer at 465 nm. The data was analysed using graph pad prism software. Positive control (100% survival)=Cells in complete media with 0.3% DMSO; Negative control/blank (0% survival)=Media alone containing 0.3% DMSO.
(§1) The compounds of the present invention were screened in the above mentioned assay and the results are tabulated below.

OCI-Ly10 cells = assay: Anti proliferative activity in OCI-Ly10 cells (CTG luminescence); conditions: for inhibition at 1 µM / inhibition at 10 µM: Homo sapiens, OCI-Ly10, 72 h
Description: Example 80: Determination of Anti Proliferative Activity in OCI-Ly10 Cells
OCI-Ly10 cells (UHN Canada) were plated at 7500 cells/well in 96 well flat bottom plates (Corning, Cat. No CLS3904) using complete Iscove's Modified Dulbecco's Medium (IMDM. After 6 hours, compounds from the present invention were added to the cells from 10 mM stocks made in DMSO (Sigma, Cat. No D2650). Each concentration of compound was tested in triplicates with DMSO concentration not exceeding a final percentage of 0.1 in the cells. After 72 hours of incubation in CO2 incubator, CTG (Promega, Cat. No G7572) was added to the wells and Luminescence readings were taken in the plate reader. Percent inhibition in proliferation was calculated using Microsoft Excel software. Positive control (100% survival)=Cells in complete media with 0.1% DMSO; Negative control/blank (0% survival)=Media alone containing 0.1% DMSO.

NCI-H2122 cells = assay: Anti proliferative activity in NCI-H2122 cells by XTT assay; conditions: Homo sapiens, NCI-H2122, 192 h, H2122 cell line; for IC50: 8 days (192 hour) incubation; for viability at 30 µM: 8 days
Description: Example 79: Determination of Anti Proliferative Activity in NCI-H2122 Cells by XTT Assay
NCI-H2122 cells (ATCC CRL-5985) were plated at 1000 cells/well in 96 well flat clear bottom plates (Corning, Cat. No 3596) using complete RPMI-1640 media. After 24 hours, compounds of present invention were added to cells from 10 mM stocks made in DMSO (Sigma Cat no. D2650). Each concentration of compound was tested in triplicate with DMSO concentration not exceeding a final percentage of 0.3 in the cells. Complete RPMI-1640 media changed at Day 3 (72 hour) and Day 6 (144 hour) along with compounds of current invention. After 8 days (192 hour) of incubation assay terminated using 50 μl of XTT reagent (Invitrogen, Cat. no X6493). XTT reagent was made by dissolving 1 mg/mi XTT in serum free media with addition of 25 μM Phenazine methosulfate (sigma Cat. no P9625). Absorbance readings were taken in spectrophotometer at 465 nm. The data was analysed using graph pad prism software. Positive control (100% survival)=Cells in complete media with 0.3% DMSO; Negative control/blank (0% survival)=Media alone containing 0.3% DMSO.
as §1

[1] = Homo sapiens, NCI-H1792, 72 h, at 30 μM, 72 hours

Compound	IC50 (NCI-H2122 cells) [µM]	inhibition at 1 µM (OCI-Ly10 cells) [%]	inhibition at 10 µM (OCI-Ly10 cells; at 10 μM) [%]	viability at 30 µM (NCI-H2122 cells) [%]	further results
C=CC(=O)N1CCN(C(=O)NC(C)(C)C#Cc2ccc(Cl)c(Cl)c2)CC1 [Example 3]		12	92		IC50 (NCI-H1792 cells; Homo sapiens, NCI-H1792, 72 h): < 10 µM; viability at 30 µM (NCI-H1792 cells; [1]): 3%
C#Cc1cc(C#CC2(NC(=O)N3CCN(C(=O)C=C)CC3)CC2)ccc1Cl [Example 36]		39	65		
C=CC(=O)N1CCC(C(=O)NC(C)C#Cc2ccc(Cl)c(Cl)c2)C1 (centres unmarked) [Example 71]			62		IC50 (NCI-H1792 cells; Homo sapiens, NCI-H1792, 72 h): 10 to 25 µM; viability at 30 µM (NCI-H1792 cells; [1]): 26%; % inhibition (at 1 μM) (OCI-Ly10 cells; 72 hours): 9%
CC(C#Cc1ccc(Cl)c(Cl)c1)NC(=O)N1CCN(C(=O)/C=C/C(F)(F)F)CC1 (racemic) [Example 42, (E)-N-(4-(3,4-dichlorophenyl)but-3-yn-2-yl)-4-(4,4,4-trifluorobut-2-enoyl) piperazine-1-carboxamide]	< 10	81	62	0	
CC(C#Cc1ccc(Cl)c(Cl)c1)NC(=O)N1CCC(N2C(=O)C=CC2=O)CC1 (centres unmarked) [Example 59]	< 10	25	100	0	
C=CC(=O)N1CCN(C(=O)NC(C)C#Cc2ccc(Cl)c(NC(=O)C3CC3)c2)CC1 (racemic) [Example 41, 4-acryloyl-N-(4-(4-chloro-3-(cyclopropanecarboxamido)phenyl)but-3-yn-2-yl) piperazine-1-carboxamide]	10 to 25	0	36		
C=CC(=O)N1CCN(C(=O)NC2(C#Cc3ccc(Cl)c(Cl)c3)CC2)CC1 [Example 23]	< 10	48	67	21	
C=CS(=O)(=O)N1CCN(C(=O)NC2(C#Cc3ccc(Cl)c(Cl)c3)CC2)CC1 [Example 51, N-(1-((3,4-dichlorophenyl)ethynyl)cyclopropyl)-4-(vinylsulfonyl) piperazine-1-carboxamide]		3	52	0	
C=CC(=O)N1CCN(C(=O)NC(C)C#Cc2ccc(C#N)c(C(F)(F)F)c2)CC1 (centres unmarked) [Example 63]	< 10	49	79	18	
C=CC(=O)N1CCC(C(=O)NC(C)C#Cc2ccc(Cl)c(Cl)c2)C1 (centres unmarked) [Example 72]					IC50 (NCI-H1792 cells): 10 to 25 µM; % Viability (at 30 μM) (NCI-H1792 cells; at 30 μM, 72 hours): 27%; % inhibition (at 1 μM) (OCI-Ly10 cells; 72 hours): 4%; % inhibition (at 10 μM) (OCI-Ly10 cells; at 10 μM, 72 hours): 55%
CC(C#Cc1ccc(Cl)c(Cl)c1)NC(=O)N1CCN(C(=O)C2CC(Br)=NO2)CC1 (racemic) [Example 77, 4-(3-bromo-4,5-dihydroisoxazole-5-carbonyl)-N-(4-(3,4-dichlorophenyl)but-3-yn-2-yl)piperazine-1-carboxamide(±)]	10 to 25				
C=CC(=O)N1CCN(C(=O)NC(C)C#Cc2ccc(Cl)c(Cl)c2)CC1=O (racemic) [Example 52, 4-acryloyl-N-(4-(3,4-dichlorophenyl)but-3-yn-2-yl)-3-oxopiperazine-1-carboxamide]	10 to 25	3	82	78	
C=CC(=O)N1CC(C(=O)N2CCN(C(=O)NC3(C#Cc4ccc(Cl)c(Cl)c4)CC3)CC2)C1 [Example 68, 4-(1-acryloylazetidine-3-carbonyl)-N-(1-((3,4-dichlorophenyl)ethynyl)cyclopropyl) piperazine-1-carboxamide]	> 25				
C=CC(=O)N1CCN(C(=NC#N)NC(C)C#Cc2ccc(Cl)c(Cl)c2)CC1 (racemic) [Example 54, (E)-4-acryloyl-N′-cyano-N-(4-(3,4-dichlorophenyl)but-3-yn-2-yl) piperazine-carboximidamide]		37	56		IC50 (NCI-H1792 cells; Homo sapiens, NCI-H1792, 72 h): < 10 µM; viability at 30 µM (NCI-H1792 cells; [1]): 22%
C=CC(=O)N1CCN(C(=O)NC(C)C#Cc2ccc(Cl)c(Cl)c2)CC1 (single isomer, unassigned) [Example 1a, 4-acryloyl-N-(4-(3,4-dichlorophenyl)but-3-yn-2-yl) piperazine-1-carboxamide]				26	IC50 (NCI-H1792 cells; Homo sapiens, NCI-H1792, 72 h): < 10 µM; viability at 30 µM (NCI-H1792 cells; [1]): 45%
CC(C)/C=C(\C#N)C(=O)N1CCN(C(=O)NC2(C#Cc3ccc(Cl)c(Cl)c3)CC2)CC1 [Example 45, (E)-4-(2-cyano-4-methylpent-2-enoyl)-N-(1-((3,4-dichlorophenyl)ethynyl)cyclopropyl) piperazine-1-carboxamide]		0	44		
C=CC(=O)N1CCN(C(=O)NC(C)C#Cc2ccc(F)c(Cl)c2)CC1 (centres unmarked) [Example 5]		43	77		IC50 (NCI-H1792 cells; Homo sapiens, NCI-H1792, 72 h): < 10 µM; viability at 30 µM (NCI-H1792 cells; [1]): 57%
C=CCN(C(=O)C=C)C1CCN(C(=O)NC(C)C#Cc2ccc(Cl)c(Cl)c2)CC1 (centres unmarked) [Example 58]				72	IC50 (NCI-H1792 cells; Homo sapiens, NCI-H1792, 72 h): > 25 µM
C=CC(=O)N1CCN(C(=O)NC(C)C#Cc2ccc(N(CC)CC)c(Cl)c2)CC1 (centres unmarked) [Example 31]	10 to 25			19	
C=CC(=O)N1CCN(C(=O)NC2(C#Cc3cccc4ccccc34)CC2)CC1 [Example 35]		24	67		
C=CC(=O)N1CCN(C(=O)NC(C)C#Cc2ccc(Cl)c(C3(C)CC3)c2)CC1 (centres unmarked) [Example 28]	10 to 25				
C=CC(=O)N1CCN(C(=O)NC(C)C#Cc2ccc(Cl)s2)CC1 (centres unmarked) [Example 17]	10 to 25			19	

Now from value to compound, other results behind:

IC50 (NCI-H2122 cells) [µM]	Compound	inhibition at 1 µM (OCI-Ly10 cells) [%]	inhibition at 10 µM (OCI-Ly10 cells; at 10 μM) [%]	viability at 30 µM (NCI-H2122 cells) [%]	further results
10 to 25	C=CC(=O)N1CCN(C(=O)NC(C)C#Cc2ccc(Oc3ccccc3)c(Cl)c2)CC1 (centres unmarked) [Example 25]	3	72	16	
< 10	C=CC(=O)N1CCN(C(=O)NC2(C#Cc3ccc(Cl)c(Cl)c3)CCCC2)CC1 [Example 24]	35	68		
< 10	C=CC(=O)N1CC(N2CCN(C(=O)NC(C)C#Cc3ccc(Cl)c(C4(C)CC4)c3)CC2)C1 (centres unmarked) [Example 29]	42	90		
> 25	C=CC(=O)N[C@H]1CC[C@@H](NC(=O)NC(C)C#Cc2ccc(Cl)c(Cl)c2)CC1 (some centres unmarked) [Example 33]				viability at 30 µM (NCI-H1792 cells; [1]): 54%
> 25	C=CC(=O)N1CCN(C(=O)NC(C)C#Cc2ccc(F)c(Cl)c2)CC1 (centres unmarked) [Example 22]			49	
> 25	CC(C#Cc1ccc(Cl)c(Cl)c1)NC(=O)N1CCN(C(=O)/C(C#N)=C/N(C)C)CC1 (centres unmarked) [Example 60]			90	
< 10	O=C(/C=C/C(F)(F)F)N1CCN(C(=O)NC2(C#Cc3ccc(Cl)c(Cl)c3)CC2)CC1 [Example 66, (E)-N-(1-((3,4-dichlorophenyl)ethynyl)cyclopropyl)-4-(4,4,4-trifluorobut-2-enoyl) piperazine-1-carboxamide]	75	73		
10 to 25	CC(C#Cc1ccc(Cl)c(Cl)c1)NC(=O)N1CCC(n2ccnc2)CC1 (centres unmarked) [Example 62]			33	
< 10	C=CC(=O)N1CCN(C(=O)NC(C)C#Cc2ccc(OCc3ccccc3)c(Cl)c2)CC1 (centres unmarked) [Example 18]			1	
10 to 25	C=CC(=O)ON=C1CCN(C(=O)NC(C)C#Cc2ccc(Cl)c(Cl)c2)CC1 (centres unmarked) [Example 53]			99	
